Measured values from EP4273147A1, “SUBSTITUTED SPIROLACTAMS, SALTS THEREOF AND THEIR USE AS HERBICIDALLY ACTIVE SUBSTANCES” (Bayer Aktiengesellschaft, priority 2022, dated 2023).

Key:
ECHCG [1] = assay: Herbicidal pre-emergence action (Table A2); format: in vivo, Echinochloa crus-galli; settings: application rate 320 g/ha; visual grading after ca. 3 weeks
Excerpt: (§1) Seeds of mono- and dicotyledonous weed plants were sown in plastic pots (double sowings with one species of mono- and one species of dicotyledonous weed plants per pot), in sandy loam, and covered with soil.

LOLRI [2] = assay: Herbicidal pre-emergence action (Table A3); format: in vivo, Lolium rigidum; settings: visual grading after ca. 3 weeks
Excerpt: as §1

MATIN = assay: Herbicidal pre-emergence action (Table A4); format: in vivo, Matricaria inodora; settings: application rate 1280 g/ha; visual grading after ca. 3 weeks
Excerpt: as §1

SETVI [3] = assay: Herbicidal pre-emergence action (Table A5); format: in vivo, Setaria viridis; settings: visual grading after ca. 3 weeks
Excerpt: as §1

STEME = assay: Herbicidal pre-emergence action (Table A6); format: in vivo, Stellaria media; settings: visual grading after ca. 3 weeks
Excerpt: as §1

POAAN [4] = assay: Herbicidal pre-emergence action (Table A7); format: in vivo, Poa annua; settings: visual grading after ca. 3 weeks
Excerpt: as §1

ALOMY [5] = assay: Herbicidal pre-emergence action (Table A9); format: in vivo, Alopecurus myosuroides; settings: application rate 1280 g/ha; visual grading after ca. 3 weeks
Excerpt: as §1

VERPE [6] = assay: Herbicidal pre-emergence action (Table A11); format: in vivo, Veronica persica; settings: application rate 1280 g/ha; visual grading after ca. 3 weeks
Excerpt: as §1

DIGSA [7] = assay: Herbicidal pre-emergence action (Table A12); format: in vivo, Digitaria sanguinalis; settings: application rate 320 g/ha; visual grading after ca. 3 weeks
Excerpt: as §1

ECHCG [8] = assay: Herbicidal post-emergence action (Table B3); format: in vivo, Echinochloa crus-galli; settings: application rate 1280 g/ha, rated visually after about 3 weeks
Experimental: (§2) Seeds of mono- and dicotyledonous weed plants were placed in plastic pots in sandy loam soil (doubly sown with in each case one species of mono- or dicotyledonous weed plants per pot), covered with soil and cultivated in a greenhouse under controlled growth conditions. 2 to 3 weeks after sowing, the test plants were treated at the one-leaf stage. […] After the test plants had been kept in the greenhouse under optimum growth conditions for about 3 weeks, the activity of the preparations was rated visually in comparison to untreated controls. For example, 100% activity = the plants have died, 0% activity = like control plants.

POAAN [9] = assay: Herbicidal post-emergence action (Table B7); format: in vivo, Poa annua; settings: application rate 1280 g/ha
Experimental: as §2

ALOMY [10] = assay: Herbicidal pre-emergence action, section C (Table C2); format: in vivo, Alopecurus myosuroides; settings: application rate 320 g/ha; visual grading after ca. 3 weeks
Excerpt: Seeds of mono- and dicotyledonous weed plants and crop plants were sown, in plastic or organic planting pots, in sandy loam and covered with soil. The compounds according to the invention, formulated in the form of wettable powders (WP) or as emulsifiable concentrates (EC), were applied to the surface of the covering soil as aqueous suspension or emulsion, with the addition of 0.5% of an additive, at an application rate of 600 1 of water/ha (converted). Following treatment, the pots were placed in a greenhouse and kept under optimum growth conditions for the test plants.

DIGSA [11] = assay: Herbicidal pre-emergence action, section C (Table C5); format: in vivo, Digitaria sanguinalis; settings: application rate 320 g/ha; visual grading after ca. 3 weeks
ECHCG [12] = assay: Herbicidal pre-emergence action, section C (Table C6); format: in vivo, Echinochloa crus-galli; settings: visual grading after ca. 3 weeks
LOLRI [13] = assay: Herbicidal pre-emergence action, section C (Table C7); format: in vivo, Lolium rigidum; settings: application rate 320 g/ha; visual grading after ca. 3 weeks
SETVI [14] = assay: Herbicidal pre-emergence action, section C (Table C10); format: in vivo, Setaria viridis; settings: visual grading after ca. 3 weeks
VERPE [15] = assay: Herbicidal pre-emergence action, section C (Table C11); format: in vivo, Veronica persica; settings: application rate 320 g/ha; visual grading after ca. 3 weeks
VIOTR = assay: Herbicidal pre-emergence action, section C (Table C12); format: in vivo, Viola tricolor; settings: application rate 80 g/ha; visual grading after ca. 3 weeks
ZEAMX [16] = assay: Pre-emergence effects on crop plants (Table D1); format: in vivo, Zea mays; settings: crop plant, visual grading after ca. 3 weeks
TRZAS [17] = assay: Pre-emergence effects on crop plants (Table D2); format: in vivo, Triticum aestivum; settings: crop plant, visual grading after ca. 3 weeks
GLXMA [18] = assay: Pre-emergence effects on crop plants (Table D4); format: in vivo, Glycine max; settings: crop plant, visual grading after ca. 3 weeks
ZEAMX [19] = assay: Post-emergence effects on crop plants (Table F1); format: in vivo, Zea mays; settings: application rate 320 g/ha, crop plant ZEAMX
Excerpt: (§3) 2 to 3 weeks after sowing, the test plants were sprayed in the single-leaf stage.

TRZAS [20] = assay: Post-emergence effects on crop plants (Table F2); format: in vivo, Triticum aestivum; settings: application rate 320 g/ha, crop plant TRZAS
Excerpt: as §3

ORYZA [21] = assay: Post-emergence effects on crop plants (Table F3); format: in vivo, Oryza sativa; settings: application rate 320 g/ha, crop plant ORYZA
Excerpt: as §3

BRSNW [22] = assay: Post-emergence effects on crop plants (Table F5); format: in vivo, Brassica napus; settings: crop plant BRSNW
Excerpt: as §3

ORYZA [23] = assay: Pre-emergence effects on crop plants (Table D3); settings: crop plant, visual grading after ca. 3 weeks
BRSNW [24] = assay: Pre-emergence effects on crop plants (Table D5); format: in vivo, Brassica napus; settings: crop plant, visual grading after ca. 3 weeks
ECHCG [25] = assay: Herbicidal post-emergence action, section E (Table E5); format: in vivo, Echinochloa crus-galli; settings: application rate 320 g/ha; assessed visually after ca. 3 weeks
Excerpt: as §3

SETVI [26] = assay: Herbicidal post-emergence action (Table B8); format: in vivo, Setaria viridis
Experimental: as §2

KCHSC = assay: Herbicidal pre-emergence action (Table A10); format: in vivo, Kochia scoparia; settings: visual grading after ca. 3 weeks
Excerpt: as §1

GLXMA [27] = assay: Post-emergence effects on crop plants (Table F4); format: in vivo, Glycine max; settings: application rate 320 g/ha, crop plant GLXMA
Excerpt: as §3

SMILES | pre-emergence activity against ECHCG (ECHCG [1]) | pre-emergence activity against MATIN (MATIN) | pre-emergence activity against SETVI (SETVI [3]; application rate 1280 g/ha) | pre-emergence activity against STEME (STEME; application rate 1280 g/ha) | pre-emergence activity against POAAN (POAAN [4]; application rate 320 g/ha) | pre-emergence activity against ALOMY (ALOMY [5]) | pre-emergence activity against VERPE (VERPE [6]) | pre-emergence activity against DIGSA (DIGSA [7]) | post-emergence activity against ECHCG (ECHCG [8]) | post-emergence activity against POAAN (POAAN [9]) | pre-emergence activity against ALOMY (ALOMY [10]) | pre-emergence activity against SETVI (SETVI [14]; application rate 320 g/ha) | pre-emergence activity against GLXMA (GLXMA [18]; application rate 80 g/ha) | post-emergence activity against ZEAMX (ZEAMX [19]) | post-emergence activity against TRZAS (TRZAS [20]) | post-emergence activity against ORYZA (ORYZA [21]) | pre-emergence activity against LOLRI (LOLRI [2]; application rate 320 g/ha) | pre-emergence activity against SETVI (SETVI [3]; application rate 320 g/ha) | pre-emergence activity against ECHCG (ECHCG [12]; application rate 320 g/ha) | post-emergence activity against BRSNW (BRSNW [22]; application rate 320 g/ha) | other results
O=C1N(Cc2ccccc2F)CCCC12CCN(Cc1ccccc1Cl)C2=O (racemic) [I-027] | 100% | 90% | 100% | 90% | 100% | 90% | 90% | 90% | 90% | 90% | 100% | 100% | 0% | 0% | 0% | 0% |  |  |  |  | pre-emergence activity against LOLRI (LOLRI [2]; application rate 1280 g/ha): 100%; pre-emergence activity against DIGSA (DIGSA [11]): 100%; pre-emergence activity against ECHCG (ECHCG [12]; application rate 80 g/ha): 100%; pre-emergence activity against LOLRI (LOLRI [13]): 90%; pre-emergence activity against VERPE (VERPE [15]): 90%; pre-emergence activity against VIOTR (VIOTR): 90%; pre-emergence activity against ZEAMX (ZEAMX [16]; application rate 320 g/ha): 0%; pre-emergence activity against TRZAS (TRZAS [17]; application rate 320 g/ha): 0%; post-emergence activity against BRSNW (BRSNW [22]; application rate 80 g/ha): 20%; pre-emergence activity against ORYZA (ORYZA [23]; application rate 320 g/ha): 0%
Cc1ccccc1CN1CCCC2(CCCN(Cc3ccccc3F)C2=O)C1=O (racemic) [I-044] | 100% | 100% |  |  | 90% | 90% |  |  | 90% | 90% | 80% |  |  | 0% | 10% | 0% | 100% | 90% | 100% | 0% | pre-emergence activity against STEME (STEME; application rate 320 g/ha): 90%; pre-emergence activity against SETVI (SETVI [14]; application rate 80 g/ha): 100%; pre-emergence activity against ZEAMX (ZEAMX [16]; application rate 80 g/ha): 0%; pre-emergence activity against TRZAS (TRZAS [17]; application rate 80 g/ha): 0%; pre-emergence activity against GLXMA (GLXMA [18]; application rate 320 g/ha): 0%; pre-emergence activity against BRSNW (BRSNW [24]; application rate 320 g/ha): 0%; post-emergence activity against ECHCG (ECHCG [25]): 80%
Cc1ccccc1CN1CCCC2(CCCN(Cc3c(F)cccc3F)C2=O)C1=O (racemic) [I-051] | 100% |  |  |  |  | 90% | 90% |  | 90% | 90% |  |  |  |  |  |  | 100% | 100% |  |  | pre-emergence activity against POAAN (POAAN [4]; application rate 1280 g/ha): 90%; post-emergence activity against SETVI (SETVI [26]; application rate 1280 g/ha): 90%
COc1ccccc1CN1CCCC2(CCCN(Cc3ccccc3F)C2=O)C1=O (racemic) [I-061] | 100% | 90% |  |  | 100% | 90% |  |  | 90% | 90% | 80% | 100% |  | 0% | 0% | 0% | 100% | 100% | 100% | 0% | pre-emergence activity against ZEAMX (ZEAMX [16]; application rate 80 g/ha): 0%; pre-emergence activity against GLXMA (GLXMA [18]; application rate 320 g/ha): 0%; pre-emergence activity against BRSNW (BRSNW [24]; application rate 320 g/ha): 0%; post-emergence activity against ECHCG (ECHCG [25]): 80%; pre-emergence activity against ORYZA (ORYZA [23]; application rate 80 g/ha): 0%
O=C1N(Cc2ccsc2)CCCC12CCCN(Cc1cccc(F)c1F)C2=O (racemic) [I-072] | 100% | 90% | 90% | 90% |  |  |  |  |  |  | 80% |  | 0% | 0% | 0% | 0% | 100% |  | 100% | 0% | pre-emergence activity against POAAN (POAAN [4]; application rate 1280 g/ha): 90%; pre-emergence activity against KCHSC (KCHSC; application rate 320 g/ha): 90%; pre-emergence activity against SETVI (SETVI [14]; application rate 80 g/ha): 100%; pre-emergence activity against TRZAS (TRZAS [17]; application rate 80 g/ha): 10%; pre-emergence activity against BRSNW (BRSNW [24]; application rate 80 g/ha): 20%; post-emergence activity against GLXMA (GLXMA [27]): 0%
O=C1N(Cc2ccc(F)c(F)c2F)CCCC12CCCN(Cc1ccc(F)c(F)c1F)C2=O (racemic) [I-189, 2,8-bis(2,3,4-trifluorophenylmethyl)-2,8-diazaspiro[5.5]undecane-1,7-dione] | 100% | 90% |  | 90% |  | 100% |  | 90% |  |  |  |  |  |  |  |  |  | 100% |  |  | pest or weed control at 1280 g/ha (LOLRI [2]; Lolium rigidum, pre-emergence, 504 h, application rate 1280 g/ha, read-out: pre-emergence activity against LOLRI): 100%; pest or weed control at 320 g/ha (POAAN [4]; Poa annua, pre-emergence, 504 h, application rate 320 g/ha, read-out: pre-emergence activity against POAAN): 100%; pre-emergence activity against KCHSC (KCHSC; application rate 1280 g/ha): 100%; pest or weed control at 1280 g/ha (ECHCG [8]; Echinochloa crus-galli, post-emergence, 504 h, read-out: post-emergence activity against ECHCG): 90%; post-emergence activity against SETVI (SETVI [26]; application rate 320 g/ha): 90%
